Series [1] can be described thus: Translational diffusion NMR (DOSY) of NLS peptides. In kind it is physicochemical. Particulars: ~100 μM peptide, 50 mM deuterated Tris pH 7.2, 100% D2O, 10 °C. From the text: For the four peptides, we measured the experimental value of D for dioxane ranging from (1.2 ± 0.1) × 10^−5 to (1.05 ± 0.02) × 10^−5 cm^2 s^−1 in each solution containing the corresponding peptide; we assumed a hydrodynamic radius of 2.12 Å for dioxane (Table 1) under any condition. […] Furthermore, the values of D were similar for the D- and L-peptides, and the latter were already being described as disordered. Thus, we can conclude that the four D-peptides were monomeric and disordered, like the L-form counterparts, and, then, there was no difference in the hydrodynamic properties of the peptides by changing the enantiomeric nature of the residues.
The NMR spectra were acquired at 10 °C on a Bruker Avance III spectrometer (Bruker GmbH, Mannheim, Germany), equipped with a triple-resonance probe and z-pulse field gradients. All NMR experiments with D-NLS peptides were carried out in 50 mM deuterated Tris buffer (not corrected for isotope effects), pH 7.2. Spectra were calibrated with TSP, by considering pH-dependent changes in its chemical shifts; probe temperature was calibrated with pure methanol.
The typical D-NLS peptide concentrations in DOSY experiments were ~100 μM, and 128 scans were acquired, in which the gradient strength was varied linearly in sixteen steps, between 2 and 95% of the total power of the gradient coil. Measurements of the translational self-diffusion coefficient, D, were performed with the pulsed-gradient spin-echo sequence in the presence of 100% D2O. Details on the experimental conditions and fitting of the resulting curves have been described elsewhere. Gradient strength was calibrated by using the value of D for the residual proton water signal in a sample containing 100% D2O, in a 5 mm tube [23]. Gradient length was 2.5 ms; the time between the two pulse gradients in the sequence was 250 ms; and the recovery delay between the bipolar gradients was 100 μs. The signals from methyl groups between 0.8 and 1.0 ppm were used for peak integration, for all the D-NLS peptides. A final concentration of 1% of dioxane, which was assumed to have a hydrodynamic radius Rh of 2.12 Å [23], was added to the solution of each peptide.

The target in series [2] is T1, Impα3 (Homo sapiens, UniProt O00629).
T1 construct: Human importin α3 isoform (residues 1–521); made in house
T1 sequence (O00629 1-521): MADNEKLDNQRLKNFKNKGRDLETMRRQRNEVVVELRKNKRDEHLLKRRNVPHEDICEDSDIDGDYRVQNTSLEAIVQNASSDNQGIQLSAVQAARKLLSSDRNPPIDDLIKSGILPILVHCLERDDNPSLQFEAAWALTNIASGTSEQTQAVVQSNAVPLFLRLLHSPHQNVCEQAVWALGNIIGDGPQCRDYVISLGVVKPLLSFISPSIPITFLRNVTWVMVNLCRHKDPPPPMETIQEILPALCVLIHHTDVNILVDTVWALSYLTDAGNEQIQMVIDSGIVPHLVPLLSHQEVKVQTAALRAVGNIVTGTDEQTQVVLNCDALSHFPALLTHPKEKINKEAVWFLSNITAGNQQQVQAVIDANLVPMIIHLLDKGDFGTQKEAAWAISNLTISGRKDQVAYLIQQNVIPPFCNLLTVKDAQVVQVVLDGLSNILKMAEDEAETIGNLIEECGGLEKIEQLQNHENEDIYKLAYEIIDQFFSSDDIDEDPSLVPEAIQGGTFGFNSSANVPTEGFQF
As to the kind of experiment: Biolayer interferometry (BLI) binding to Impα3. Particulars: peptide 1–10 μM, 25 °C. The protocol:
(§1) The association (kon) and dissociation (koff) rate constants of the binding of D-NLS peptides to either Impα3 or ∆Impα3 were determined by using a BLItz system (ForteBio, Pall, Barcelona, Spain). The buffer used in the experiments was that recommended by the manufacturer. […] The peptide concentrations were in a range from 1 to 10 μM during the association step. The general scheme of the protein association/dissociation reactions in the BLItz system for the D-NLS peptides was as follows: 30 s of initial baseline acquisition with the 10 × kinetics buffer (provided by the manufacturer); 120 s of loading either Impα3 and ∆Impα3 into the biosensor; 30 s of baseline acquisition with the 10 × kinetics buffer; 120 s of association of each peptide to the biosensor (which had been previously loaded with the importin species); and 120 s of monitoring of the dissociation of each peptide from the biosensor. All experiments were carried out at 25 °C.
(§2) Fittings of the BLI sensorgrams was carried out by using KaleidaGraph, as previously described. The interferometry response during the association step, R(t) (measured in response units, RU), and the binding rate, dR(t)/dt, could be used to evaluate the kinetics of the formation of the complex between Impα3/∆Impα3 and each D-NLS, according to:(2) dR/dt=konD-NLSRmax−Rt−koffR(t) where Rmax is proportional to the total concentration of biosensor-bound importin species; and [D-NLS] represents the concentration of the corresponding D-NLS peptide.
(§3) In Equation (2), R(t) is given by:(3) Rt= Req−Reqe^(−kobs t−t0) where Req is the steady-state (or equilibrium) response obtained at infinite time, when dR(t)/dt = 0, and t0 = 180 s is the time at which the association step between biosensor-immobilized Impα3/∆Impα3 and D-NLS in the solution started. We fitted the experimentally obtained R(t) under any condition as:(4) Rt= Req−Reqe^−kobs t−t0−R’eq(t−t0) where R^′eq was included to consider the lineal drift observed at longer times.
(§4) The dissociation process was always fitted to a single exponential, with R(t) given by:(6) Rt=R1 e^(−kofft−t0)−R^″eq(t−t0) where t0 = 300 is the time at which the dissociation of the D-NLS from the biosensor-bound Impα3/∆Impα3 started in our experimental set-up, R1 is the response level when dissociation starts, and the parameter R^″eq considers the linear drift observed at longer times.
(§5) The experiments were repeated at least twice for each peptide with each importin species.

The target in series [3] is T2, ∆Impα3 (Homo sapiens, UniProt O00629).
T2 construct: IBB-depleted species of Impα3 (residues 64–521 of the intact protein); made in house
T2 sequence (O00629 64-521): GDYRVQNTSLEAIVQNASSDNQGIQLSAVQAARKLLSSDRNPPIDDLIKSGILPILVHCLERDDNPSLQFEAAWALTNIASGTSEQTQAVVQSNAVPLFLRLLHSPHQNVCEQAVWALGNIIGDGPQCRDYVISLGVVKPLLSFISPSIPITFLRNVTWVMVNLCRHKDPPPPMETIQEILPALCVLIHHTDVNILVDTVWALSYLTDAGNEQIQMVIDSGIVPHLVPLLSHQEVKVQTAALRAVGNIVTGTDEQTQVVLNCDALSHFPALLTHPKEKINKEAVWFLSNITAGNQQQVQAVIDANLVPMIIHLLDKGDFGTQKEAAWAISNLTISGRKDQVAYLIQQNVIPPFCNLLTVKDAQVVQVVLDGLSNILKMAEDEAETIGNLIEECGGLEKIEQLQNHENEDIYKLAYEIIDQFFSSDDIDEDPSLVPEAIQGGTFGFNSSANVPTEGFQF
Nature of the series: Biolayer interferometry (BLI) binding to ∆Impα3. The note with it: BLItz, ∆Impα3 immobilized via His-tag (0.25 μM), peptide 1–10 μM, 10 × kinetics buffer, 25 °C, error from pseudo-first order fit, at least two repeats, read-out: kon. As for the experimental part:
as §1, §2, §3, §4, §5
In general terms: In BLI a coated tip is dipped into the sample, and binding shifts an interference pattern.

Series [4] has as its target T1, Impα3. Nature of the series: Isothermal titration calorimetry (ITC) with Impα3. The format is binding. The note with it: Impα3, 50 mM Tris pH 8.0, 25 °C. As for the experimental part: (§6) Calorimetric titrations for testing the interaction of D-NLS peptides with either Impα3 or ΔImpα3 were carried out in an VP-ITC instrument (Microcal, Northhamptom, MA, USA). The importin species were loaded into the cell calorimeter and the corresponding D-NLS peptide in the syringe in Tris buffer 50 mM, pH 8.0. All experiments were carried out at 25 °C.
(§7) These twenty-nine ITC experiments involved sequential injections of microliter amounts (10 µL) of a stock solution of D-NLS peptide (in a concentration range of 150–200 µM) into the calorimetric cell (1.4 mL); the cell initially contained protein solution (15 µM for either Impα3 or ΔImpα3 in protomer units). To correct for the heat evolved due to the dilution effect for adding the ligand (peptide) solution to the calorimetric cell, an independent experiment was performed, in which the same peptide solution was injected into the calorimetric cell loaded with buffer. After correction for the dilution heat, the isotherm was fitted to a binding model that assumed the existence of a single set of binding sites, by using the software v1.41 provided by the manufacturer.
For orientation: ITC needs no label: the signal is the heat of the interaction.

Series [5] addresses T2, ∆Impα3. Nature of the series: Isothermal titration calorimetry (ITC) with ∆Impα3. In kind it is binding. The note with it: ∆Impα3, 50 mM Tris pH 8.0, 25 °C. The protocol: as §6, §7
The conditions of series [6]: sequence synthesized in reverse order; ref [38]; cited from earlier work. An excerpt: A few additional conclusions can be drawn from our results, in the context of their relevance for understanding the importance of importin in the regulation of the nucleocytoplasmic transport of cargo proteins. Although we cannot rule out that the intrinsic high flexibility of Impα3 could be involved in its lack of selectivity towards different stereoisomers, we believe the following: (i) the intrinsic disorder of the isolated NLS peptides (derived from the cargos), as shown by NMR (Figure 1 and Figure 2), and (ii) the fact that the peptides remained disordered upon binding to the importin spe ...

The conditions of series [7]: L-NLS counterparts, literature values, ref [5],[6],[7], cited from earlier work. From the text: Table 1 Hydrodynamic properties of the D-NLS peptides ^a. | column: D (cm^2 s^−1) × 10^6 (Rh, Å) (L-NLS) ^d
Series [8] addresses T1, Impα3. The note with it: literature value for L-NLS counterpart, ref [5],[6],[7], read-out: Kd (ITC) (L-NLS Peptide); cited from earlier work. An excerpt: Table 2 Kinetic and thermodynamic parameters of the binding reaction of D-NLS peptides to Impα3 ^a. | column: Kd (μM) (ITC/Fluorescence) (L-NLS Peptide) ^c || We also used ITC to determine the thermodynamic binding parameters in the association of each of the peptides to both importin species (Figure 4). […] For D-NLS-NUPR1L, the values of enthalpy, ∆H, were −2.5 ± 0.2 and −4.5 ± 0.7 kcal mol^−1 for the binding to Impα3 and ∆Impα3, respectively. On the other hand, the values previously ...

The target in series [9] is T2, ∆Impα3. Particulars: literature value for L-NLS counterpart, ref [5],[6],[7], read-out: Kd (ITC) (L-NLS Peptide); cited from earlier work. From the text:
Table 3 Kinetic and thermodynamic parameters of the binding reaction of D-NLS peptides to ∆Impα3 ^a. | column: Kd (μM) (ITC/Fluorescence) (L-NLS Peptide) ^c || We also used ITC to determine the thermodynamic binding parameters in the association of each of the peptides to both importin species (Figure 4). […] For D-NLS-NUPR1L, the values of enthalpy, ∆H, were −2.5 ± 0.2 and −4.5 ± 0.7 kcal mol^−1 for the binding to Impα3 and ∆Impα3, respectively. On the other hand, the values previously ...

The values below come from publication PMC12386367, “Importin α3 Is Tolerant to Nuclear Localization Signal Chirality” (International Journal of Molecular Sciences, 2025).

Non-standard residues stand in square brackets, D forms with d. Residues, ends and D or L forms follow the SMILES beside them.

Consider `CC(=O)N[C@H](CCCNC(=N)N)C(=O)N[C@@H](C(=O)N[C@H](CCCNC(=N)N)C(=O)N[C@H](CCCNC(=N)N)C(=O)N[C@H](CCC(=O)O)C(=O)N[C@H](CCC(N)=O)C(=O)N[C@H](C)C(=O)N[C@H](CC(C)C)C(=O)N[C@H](CCCNC(=N)N)C(=O)N[C@@H](C(=O)N[C@H](CC(N)=O)C(=O)N[C@H](Cc1c[nH]c2ccccc12)C(=O)N1CCC[C@@H]1C(=O)N[C@H](C)C(=O)N1CCC[C@@H]1C(=O)NCC(=O)NCC(=O)N[C@H](Cc1c[nH]cn1)C(=O)N[C@H](CCC(=O)O)C(=O)N[C@H](CCCNC(=N)N)C(=O)N[C@H](CCCCN)C(=O)N[C@@H](C(=O)N[C@H](C)C(=O)N[C@H](CCC(N)=O)C(N)=O)C(C)C)[C@H](C)O)[C@H](C)O` [D-NLS-NUPR1L] (Ac-[dR][dT][dR][dR][dE][dQ][dA][dL][dR][dT][dN][dW][dP][dA][dP]GG[dH][dE][dR][dK][dV][dA][dQ]-NH2), for which, in [1], the “Diffusion coefficient D” value is recorded as 2.0 ± 0.3 cm^2 s^−1 × 10^6. In addition, the kon is 68000 ± 7000 M⁻¹ s⁻¹ on Impα3 [2] (BLItz, Impα3 immobilized via His-tag (0.25 μM), 10 × kinetics buffer, error from pseudo-first order fit, at least two repeats, read-out: kon) and 51200 ± 700 M⁻¹ s⁻¹ at ∆Impα3 [3]. At Impα3 [2] (Impα3 immobilized via His-tag, error from pseudo-first order fit (Equation 5)), this molecule registered a koff of 0.069 ± 0.04 s⁻¹. The figures for the “enthalpy ∆H” value on Impα3 [4] and at ∆Impα3 [5] were -2.5 ± 0.2 kcal/mol and -4.5 ± 0.7 kcal/mol, respectively.

In the case of DLKVRKAA, the “Binding, dependence on stereochemistry” value in [6] is recorded as “binding insensitive to L-/D-stereochemistry has been observed”.

As to “L-NLS-NUPR1: wild-type isolated NLS region of NUPR1, comprising residues 54 to 74 (TNRPSPGGHERKLVTKLQNSE; UniProt O60356 54-74, looked up, fragment)”, in series [7] (estimated from Rh of dioxane), the “Hydrodynamic radius Rh (L-NLS)” value is recorded as 11 ± 1 Å. The “Diffusion coefficient D (L-NLS)” value in series [7] was 1.85 ± 0.04 10^-6 cm^2 s^-1. For the same molecule, the values for the equilibrium dissociation constant (Kd) with Impα3 [8] and with ∆Impα3 [9] were 1700 nM and 950 nM, respectively.

As usually defined, the kon is the rate constant with which the complex forms. As a reminder, the koff is a measure of how fast the partners let go of each other. Read a high koff as a short-lived complex. The Kd is the free concentration of one partner at which half of the binding sites on the other are occupied at equilibrium, for simple one-to-one binding.
